# Experimental data: PMC6272662, “Trypanocidal Activity of Long Chain Diamines and Aminoalcohols” (Molecules, 2015)
# Experiments:
# in vitro = details: mouse
# Protocol: The mouse cell lines J774.2 macrophages and NCTC clone 929 fibroblasts were used and cultured in plastic culture flasks. J774.2 and NCTC-929 cells were grown using DMEM and BME without phenol-red, respectively. Both media were supplemented with 10% heat inactivated fetal calf serum, 2 mM glutamine, 100 U/mL penicillin and 100 μg/mL streptomycin. Cell cultures were maintained at 37 °C in a humidified atmosphere containing 5% CO2 and subpassaged once a week. Cells in the pre-confluence phase were harvested with an EDTA-trypsin solution for the experiments.
# Unspecific cytotoxicity was evaluated over phagocytic macrophages J774.2 cell line. To study cytotoxicity on J774.2 cells, 200 μL of a suspension of 2 × 10^5 macrophages/mL were added to 96 well flat-bottom microplates (Sigma). Cells were allowed to attach for 24 h at 37 °C and then exposed to the compounds for 72 h at the same concentrations as used for drug screening. […] Each concentration was assayed by triplicate, in independent experiments. Cytotoxicity was assessed by the Trypan Blue and XTT techniques and LC50 was calculated as described above.
# [1] = system: Trypanosoma cruzi epimastigotes strain JEM (MHOM/CO/05/JEM); experiment: Epimastigote susceptibility assay, JEM strain (Trypan Blue and XTT); assay type: cell-based; details: for JEM Strain SI (Selectivity Index: LC50-macrophages/IC50-epimastigotes): JEM strain epimastigotes vs J774.2 macrophages; for IC50 / JEM Strain PNFX (potency relative to NFX = IC50-NFX/IC50-compound; also called NI): epimastigotes, JEM strain; for IC50: 72 h at 28 °C, 0.1-70.0 µM, mean ± SEM
# Protocol: (§1) For in vitro studies, the strains MHOM/CO/04/MG (MG), MHOM/CO/05/JEM (JEM) and CL Brener strain clone B5 (CL-B5) were used. The MG and JEM strains correspond to Group I and Haplotype Ia isolates from two Colombian patients in the acute phase, and CL-B5 is a strain stably transfected with Escherichia coli β-galactosidase gene (lacZ). Epimastigotes were grown in plastic culture flasks at 28 °C, in axenic liver-infusion tryptose (LIT) growth medium, supplemented with 10% heat inactivated (30 min at 56 °C) foetal calf serum (FCS; Sigma), […] hemin (Sigma), and 10 µg/mL gentamycin (Sigma) and harvested in the exponential phase for conducting the experiments. Cultures were continuously maintained in logarithmic growth by weekly passages.
# (§2) Three different strains of T. cruzi were used for the primary screening on epimastigote forms. For strains MG and JEM, the screening assay was performed with approximately 1 × 10^5 epimastigotes in logaritmic growth phase in 200 μL of supplemented LIT medium per well in 96-well flat bottoned plates (Costar, Corning, Cornig, NY, USA). […] The plates were incubated for 72 h at 28 °C and all experimental conditions were evaluated in triplicate in three independent experiments. The epimastigote growth inhibition was microscopically determined by the Trypan Blue dye exclusion assay and XTT (2,3-bis-(2-methoxy-4-nitro-5-sulfophenyl)-5-[(phenylamino)carbonyl]-2H-tetrazolium hydroxide). Regarding the first method, an aliquot from every culture was suspended in 0.4% trypan blue solution for 5 min and cell viability was determined under microscope by counting live parasites in each condition in a Neubauer chamber. Anti-epimastigote activity percentage was calculated as (Parasite counts in control wells-Parasite counts in experimental wells) × 100/Parasite counts in control wells. Trypanocidal activity over both strains was also measured adding 50 μL of XTT solution per well to obtain a final concentration of 0.3 mg/mL. The plate was re-incubated 24 h in the dark at 37 °C and orange formazan solution formed, was spectrophotometrically quantified at 450 nm with a 630 nm reference filter, using an Ear400FT ELISA reader.
# (§3) Furthermore the Selectivity Index (SI = mammalian cell LC50/epimastigote IC50) for each compound was calculated to compare the antiprotozoal activity with its respective mammalian cell cytotoxicity.
# [2] = system: Trypanosoma cruzi epimastigotes strain MG (MHOM/CO/04/MG); experiment: Epimastigote susceptibility assay, MG strain (Trypan Blue and XTT); assay type: cell-based; details: for MG Strain SI (Selectivity Index: LC50-macrophages/IC50-epimastigotes): MG strain epimastigotes vs J774.2 macrophages; for IC50 / MG Strain PNFX (potency relative to NFX = IC50-NFX/IC50-compound; also called NI): epimastigotes, MG strain; for IC50: 72 h at 28 °C, 0.1-70.0 µM, mean ± SEM
# Protocol: as §1, §2, §3
# Chagas disease = system: Chagas disease; design: method as in PMID 22614520, PMID 22760123, PMID 22686518, PMID 19967227; details: chronic cases of Chagas disease; ref [6],[7],[8],[9]; cited from earlier work
# [3] = system: Trypanosoma cruzi amastigotes CL-B5 clone; experiment: Amastigote susceptibility assay, CL-B5 clone in NCTC-929 fibroblasts (CPRG); assay type: cell-based; details: Trypanosoma cruzi, NCTC929, 168 h; intracellular amastigotes in NCTC-929 fibroblasts, 7 days, mean ± SEM
# Protocol: For the anti-amastigote assays, axenic cultures of epimastigotes reaching their stationary phase of growth (14 day-old cultures) were used to infect non-confluent monolayers of NCTC-929 fibroblasts to obtain tissue culture derived trypomastigotes (TCT). After 24 h at 33 °C in a humidified 5% CO2 atmosphere, the infected cultures were washed with phosphate buffer saline (PBS) to removed non-penetrated epimastigotes. TCT were harvested from the supernatant of the cultures after one week of incubation in these conditions of temperature and humidity.
# For this assay, 120 μL of BME containing 10,000 NCTC-929 fibroblasts/well were seeded in 48-well plates (Costar) and after their attachment, infected with TCT obtained as above in a 1:6 cell-parasite ratio. The plates were incubated at 33 °C and 5% CO2 overnight and after the infection, experimental wells were washed with PBS to eliminate non-penetrated TCT. […] Then, 50 μL of a CPRG solution in 3% Triton X-100 (pH 7.4) were added to each well in a final concentration of 400 μM and the plates incubated 3 h at 37 °C. Finally, anti-amastigote activity was estimated by reading absorbance at 595 nm in a plate reader (Infinite 200, Tecan) and calculated as in Fonseca-Berzal et al.. IC50 and NI indexes were calculated as above.
# [4] = system: Trypanosoma cruzi epimastigotes CL Brener strain clone B5 (CL-B5); experiment: Epimastigote susceptibility assay, CL-B5 clone (β-galactosidase activity, CPRG); assay type: cell-based; details: Trypanosoma cruzi; epimastigotes, CL-B5 clone, 72 h at 28 °C, β-galactosidase readout, mean ± SEM
# Protocol: as §1
# Trypanocidal activity against CL-B5 strain was also assessed by measuring β-galactosidase activity. Briefly, log-phase epimastigotes were seeded in 96-well microplates at a density of 2.5 × 10^5 parasites/mL in a final volume of 200 μL/well and incubated within the compounds for 72 h at 28 °C. Afterwards, 50 μL of the β-galactosidase substrate chlorophenol red β-D-galactopyranoside (CPRG, Roche) in 0.9% Triton X-100 (Panreac) solution were added to each well (200 μM, pH 7.4) and the plates incubated at 37 °C for 3 h. Anti-epimastigote activity was estimated by reading absorbance at 595 nm. Each concentration was assayed by triplicate, in three independent experiments. […] In all spectrophotometric assays, anti-epimastigote activity percentages were calculated as (OD control wells − OD experimental wells) ×100/OD control wells.
# as §3
Compound,"IC50 ([1]; Trypanosoma cruzi, 72 h)",JEM Strain PNFX (potency relative to NFX = IC50-NFX/IC50-compound; also called NI) [1],"IC50 ([2]; Trypanosoma cruzi, 72 h)",MG Strain PNFX (potency relative to NFX = IC50-NFX/IC50-compound; also called NI) [2],IC50 [1],IC50 [2],CC50 at 72 h (in vitro),JEM Strain SI (Selectivity Index: LC50-macrophages/IC50-epimastigotes) [1],MG Strain SI (Selectivity Index: LC50-macrophages/IC50-epimastigotes) [2],average cure rate (Chagas disease),IC50 [3],IC50 [4]
CCCCCCCCCCCCCCC(N)COCc1ccccc1 (centres unmarked) [Compound 12],28.8 ± 1.2 µM,0.5,34.4 ± 1.8 µM,0.6,–,–,27.7 ± 0.1 µM,1.0,0.8,–,–,–
CCCCCCCCCCCCCCC(COCc1ccccc1)NCCCC (centres unmarked) [Compound 13],> 70 µM,–,> 70 µM,–,–,–,–,–,–,–,–,–
CCCCCCCCCCCCCCCCC(CN)NC(=O)OC(C)(C)C (centres unmarked) [Compound 16],6.7 ± 2.1 µM,2.2,13.9 ± 1 µM,1.5,–,–,24.1 ± 0.2 µM,3.6,1.7,–,–,–
CCCCCCCCCCCCCCC(CNCCCCCC)NC(=O)OC(C)(C)C (centres unmarked) [Compound 17],30.6 ± 0.65 µM,0.5,26.7 ± 0.25 µM,0.8,–,–,4.2 ± 0.05 µM,0.1,0.2,–,–,–
"CC1CS(=O)(=O)CCN1/N=C/c1ccc([N+](=O)[O-])o1 (centres unmarked) [NFX, nifurtimox, reference compound]",14.8 ± 1.24 µM,–,21.2 ± 1.16 µM,–,–,–,–,–,–,less than 20%,0.6 ± 0.01 µM,10.4 ± 1.3 µM

# Continued, in another order:
"IC50 ([1]; Trypanosoma cruzi, 72 h)",JEM Strain PNFX (potency relative to NFX = IC50-NFX/IC50-compound; also called NI) [1],"IC50 ([2]; Trypanosoma cruzi, 72 h)",MG Strain PNFX (potency relative to NFX = IC50-NFX/IC50-compound; also called NI) [2],IC50 [1],IC50 [2],Compound,CC50 at 72 h (in vitro),JEM Strain SI (Selectivity Index: LC50-macrophages/IC50-epimastigotes) [1],MG Strain SI (Selectivity Index: LC50-macrophages/IC50-epimastigotes) [2],average cure rate (Chagas disease),IC50 [3],IC50 [4]
> 70 µM,–,> 70 µM,–,> 70 µM,> 70 µM,CCCCCCCCCCCCCCC(CN(CCCCCC)CCCCCC)NC(=O)OC(C)(C)C (centres unmarked) [Compound 18],–,–,–,–,–,–
26.6 ± 0.7 µM,0.6,19.2 ± 2.9 µM,1.1,–,–,CCCCCCCCCCCCCCC(N)CN (centres unmarked) [Compound 19],78.1 ± 0.85 µM,2.9,4.1,–,–,–
> 70 µM,0.3,42.2 µM,0.6,48.8 ± 1.05 µM,32.9 ± 1.25 µM,CCCCCCCCCCCCCCC(N)CNCCCCCC (centres unmarked) [Compound 20],5 ± 0.1 µM,0.1,0.2,–,–,–
> 70 µM,–,42.2 ± 1.4 µM,0.5,–,–,CCCCCCCCCCCCCCCCC(N)CN(CC)CC (centres unmarked) [Compound 21],9.3 ± 0.5 µM,–,0.2,–,–,–
